{"source": "patent US20110306563A1", "about": "“MACROLACTONE DERIVATIVES, METHOD FOR THE PRODUCTION THEREOF AND USE THEREOF FOR THE TREATMENT OF CANCER” (SANOFI, priority 2008, published 2011)", "type_in_all_cases": "cell-based", "key": {"[1]": {"system": "HCT116", "assay": "14C-Thymidine incorporation assay, HCT116", "conditions": "Homo sapiens, HCT-116", "method": "(§1) Experimental conditions for 14C-Thymidine incorporation assays: • 1) Cells were seeded in 96 well Cytostar microplates in 180 μl of culture medium (DMEM supplemented with 10% Fetal Calf Serum). • Seeding density are 2500 cells/well for HCT116, 5000 cells/well for HT29 and PC3 and 10000 cells/well for MDA-MB231, MDA-A1, H460 and B16F10. • 2) The microplates were incubated 4 h at 37° C. with 5% CO2 • 3) 10 μl of test compound were added • 4) The microplates were incubated 72 h at 37° C. with 5% CO2 • 5) 10 μl of 14C-Thymidine at 10 μCi/ml was added • 6) The microplates were incubated 24 h at 37° C. with 5% CO2 • 7) The radioactivity incorporated in the cells was measured with a Microbeta Trilux radioactivity scintillation counter (Wallac)."}, "[2]": {"system": "MDA-A1", "assay": "14C-Thymidine incorporation assay, MDA-A1", "conditions": "MDA-A1, Breast; 72 h + 24 h 14C-Thymidine", "method": "as §1"}, "[3]": {"system": "MDA-MB231", "assay": "14C-Thymidine incorporation assay, MDA-MB231", "conditions": "Homo sapiens, MDA-MB-231; MDA-MB231, Breast; 72 h + 24 h 14C-Thymidine", "method": "as §1"}, "[4]": {"system": "HL60", "assay": "ATP viability assay (CellTiterGlo), HL60", "conditions": "Homo sapiens, HL-60; HL60, Leukemia; 96 h incubation", "method": "(§2) Experimental conditions for ATP viability assays: • 1) Cells were seeded in 96 well microplates in 135 μl of culture medium. • Culture medium used were RPMI supplemented with 10% Fetal Calf Serum for HL60 and CEM cell lines and DMEM with 10% FCS for Normal Human Dermal Fibroblasts (NHDF). Seeding density was 25000 cells/well for HL60 and CEM and 7500 cells/well for NHDF. • 2) The microplates were incubated 4 h at 37° C. with 5% CO2. • 3) 15 μl of test compound were added • 4) The microplates were incubated 96 h. • 5) 100 μl of a mix of lysing reagent and luciferase/luciferin was added (CellTiterGlo, Promega). The luminescence emitted was measured with a Microbeta Trilux counter (Wallac)."}, "[5]": {"system": "CEM", "assay": "ATP viability assay (CellTiterGlo), CEM", "conditions": "Homo sapiens, CCRF-CEM, Leukemia, 96 h incubation", "method": "as §2"}, "[6]": {"system": "HT29", "assay": "14C-Thymidine incorporation assay, HT29", "conditions": "Homo sapiens, HT-29; HT29, Colon; 72 h + 24 h 14C-Thymidine", "method": "as §1"}, "[7]": {"system": "H460", "assay": "14C-Thymidine incorporation assay, H460", "conditions": "Homo sapiens, NCI-H460; H460, Lung; 72 h + 24 h 14C-Thymidine", "method": "as §1"}, "[8]": {"system": "B16F10", "assay": "14C-Thymidine incorporation assay, B16F10", "conditions": "Mus musculus, B16-F10; B16F10, Melanoma; 72 h + 24 h 14C-Thymidine", "method": "as §1"}, "[9]": {"system": "PC3", "assay": "14C-Thymidine incorporation assay, PC3", "conditions": "Homo sapiens, PC-3; PC3, Prostate; 72 h + 24 h 14C-Thymidine", "method": "as §1"}, "[10]": {"system": "Normal Human Dermal Fibroblasts (NHDF)", "assay": "ATP viability assay (CellTiterGlo), NHDF", "conditions": "96 h incubation", "method": "as §2"}, "[11]": {"conditions": "HCT116, Colon, 72 h + 24 h 14C-Thymidine, read-out: IC50"}, "[12]": {"conditions": "HCT116 (colon), average, read-out: Average IC50 (nM) against HCT116 (colon)"}}, "note": "Like-named read-outs stand apart in the source and are kept apart here."}
{"smiles": "CCC(C)C1C(=O)NC(Cc2cc(Cl)c(OC)c(Cl)c2)C(=O)NC(C(C)(C)O)C(=O)OC(c2ccccc2)C(C)/C=C/C=C(\\C)C(OC)CC2OC2(C)C(=O)N1C", "note": "(stereo not drawn) [IX]", "values": [{"measurement": "IC50", "setting": "[1]; [11]", "result": "2.1 to 2.2", "unit": "nM"}, {"measurement": "IC50", "setting": "[2]", "result": "9.6 to 14.1", "unit": "nM"}, {"measurement": "IC50", "setting": "[3]", "result": "5.1 to 8.4", "unit": "nM"}]}
{"smiles": "CCC(C)C1C(=O)NC(Cc2ccc(O)c(Cl)c2)C(=O)NC(C(C)(C)O)C(=O)OC(c2ccccc2)C(C)/C=C/C=C(\\C)C(OC)CC2OC2(C)C(=O)N1C", "note": "(stereo not drawn) [III]", "values": [{"measurement": "IC50", "setting": "[1]; [12]", "result": 0.326, "unit": "nM"}]}
{"smiles": "CCC(C)C1C(=O)NC(Cc2ccc(O)c(Br)c2)C(=O)NC(C(C)(C)O)C(=O)OC(c2ccccc2)C(C)/C=C/C=C(\\C)C(OC)CC2OC2(C)C(=O)N1C", "note": "(stereo not drawn) [VII]", "values": [{"measurement": "IC50", "setting": "[1]; [12]", "result": 0.268, "unit": "nM"}]}
{"smiles": "CCC(C)C1C(=O)NC(Cc2cc(Cl)c(O)c(Cl)c2)C(=O)NC(C(C)(C)O)C(=O)OC(c2ccccc2)C(C)/C=C/C=C(\\C)C(OC)CC2OC2(C)C(=O)N1C", "note": "(stereo not drawn) [II]", "values": [{"measurement": "IC50", "setting": "[4]", "result": "9.5 to 15", "unit": "nM"}, {"measurement": "IC50", "setting": "[5]", "result": "7.1 to 10.5", "unit": "nM"}, {"measurement": "IC50", "setting": "[1]; [11]", "result": "0.6 to 5.6", "unit": "nM"}, {"measurement": "IC50", "setting": "[6]", "result": "3 to 12.5", "unit": "nM"}, {"measurement": "IC50", "setting": "[7]", "result": "9.1 to 10.4", "unit": "nM"}, {"measurement": "IC50", "setting": "[8]", "result": "4.5 to 25.2", "unit": "nM"}, {"measurement": "IC50", "setting": "[2]", "result": "1.4 to 20.8", "unit": "nM"}, {"measurement": "IC50", "setting": "[3]", "result": "4.8 to 16.8", "unit": "nM"}, {"measurement": "IC50", "setting": "[9]", "result": "4.4 to 16", "unit": "nM"}, {"measurement": "IC50", "setting": "[10]", "result": "6.2 to 9.5", "unit": "nM"}]}
{"smiles": "CCC(C)C1C(=O)NC(Cc2cc(Cl)c(O)c(Br)c2)C(=O)NC(C(C)(C)O)C(=O)OC(c2ccccc2)C(C)/C=C/C=C(\\C)C(OC)CC2OC2(C)C(=O)N1C", "note": "(stereo not drawn) [VI]", "values": [{"measurement": "IC50", "setting": "[1]; [12]", "result": 0.393, "unit": "nM"}]}
{"smiles": "CCC(C)C1C(=O)NC(Cc2ccc(O)c(Br)c2)C(=O)NC(C(C)(C)O)C(=O)OC(c2ccccc2)C(C)/C=C/C=C(\\C)C(OC)C/C=C(/C)C(=O)N1C", "note": "(stereo not drawn) [VIII]", "values": [{"measurement": "IC50", "setting": "[1]; [12]", "result": 2.1, "unit": "nM"}]}
{"smiles": "COC1CC2OC2(C)C(=O)N(C)C(C(C)C)C(=O)NC(Cc2cc(Cl)c(O)c(Cl)c2)C(=O)NC(C(C)(C)O)C(=O)OC(c2ccccc2)C(C)/C=C/C=C/1C", "note": "(stereo not drawn) [V]", "values": [{"measurement": "IC50", "setting": "[1]; [12]", "result": 0.673, "unit": "nM"}]}
